Source: PubChem BioAssay AID248 (DTP/NCI, 2004)
Several values for one entry are separate records, joined by “and”; a condition that tells them apart may be missing. Identical values can stand only once. Toxic doses and inconclusive results are not listed.

Tested on: L1210 leukemia ip in BDF1 mice, survival T/C
Test: NCI In Vivo Anticancer Drug Screen. Data for tumor model L1210 Leukemia (intraperitoneal) in B6D2F1 (BDF1) mice
Settings: endpoint: mean survival time, higher = longer survival
Method in brief: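 Antitumor effect is assessed in tumor-bearing animals. Survival in the compound arm is compared with a vehicle-dosed control arm and expressed as their quotient.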

[1] = dose: 100.0 mg/kg/injection, schedule: Q01DX009 (ip), vehicle: Klucel (hydroxypropylcellulose) (HPC)
[2] = dose: 100.0 mg/kg/injection, schedule: Q04DX002 (ip), vehicle: Klucel (hydroxypropylcellulose) (HPC)
[3] = dose: 100.0 mg/kg/injection, schedule: Q04DX003 (ip), vehicle: Klucel (hydroxypropylcellulose) (HPC)
[4] = dose: 200.0 mg/kg/injection, schedule: Q01DX009 (ip), vehicle: Klucel (hydroxypropylcellulose) (HPC)
[5] = dose: 200.0 mg/kg/injection, schedule: Q04DX002 (ip), vehicle: Klucel (hydroxypropylcellulose) (HPC)
[6] = dose: 200.0 mg/kg/injection, schedule: Q04DX003 (ip), vehicle: Klucel (hydroxypropylcellulose) (HPC)
[7] = dose: 400.0 mg/kg/injection, schedule: Q01DX009 (ip), vehicle: Klucel (hydroxypropylcellulose) (HPC)
[8] = dose: 400.0 mg/kg/injection, schedule: Q04DX002 (ip), vehicle: Klucel (hydroxypropylcellulose) (HPC)
[9] = dose: 400.0 mg/kg/injection, schedule: Q04DX003 (ip), vehicle: Klucel (hydroxypropylcellulose) (HPC)
[10] = dose: 100.0 mg/kg/injection, schedule: Q04DX003 (ip), vehicle: gum acacia
[11] = dose: 200.0 mg/kg/injection, schedule: Q04DX003 (ip), vehicle: gum acacia
[12] = dose: 400.0 mg/kg/injection, schedule: Q04DX003 (ip), vehicle: gum acacia
[13] = dose: 100.0 mg/kg/injection, schedule: Q01DX001 (ip), vehicle: carboxymethylcellulose (CMC)
[14] = dose: 200.0 mg/kg/injection, schedule: Q01DX001 (ip), vehicle: carboxymethylcellulose (CMC)
[15] = dose: 400.0 mg/kg/injection, schedule: Q01DX001 (ip), vehicle: carboxymethylcellulose (CMC)
[16] = dose: 100.0 mg/kg/injection, schedule: Q04DX003 (ip), vehicle: saline with Tween-80
[17] = dose: 200.0 mg/kg/injection, schedule: Q04DX003 (ip), vehicle: saline with Tween-80
[18] = dose: 400.0 mg/kg/injection, schedule: Q04DX003 (ip), vehicle: saline with Tween-80
[19] = dose: 100.0 mg/kg/injection, schedule: Q01DX009 (ip), vehicle: saline with Tween-80
[20] = dose: 200.0 mg/kg/injection, schedule: Q01DX009 (ip), vehicle: saline with Tween-80
[21] = dose: 12.5 mg/kg/injection, schedule: Q01DX009 (ip), vehicle: saline with Tween-80
[22] = dose: 25.0 mg/kg/injection, schedule: Q01DX009 (ip), vehicle: saline with Tween-80

CNC(=N)c1ccc(NC(=N)c2ccc(NC(=N)c3ccc(NC(=O)Nc4ccc(C(=N)NC)cc4)cc3)cc2)cc1
T/C (dose: 1.87 mg/kg/injection, schedule: Q01DX015 (ip), vehicle: water): 114 % of control | T/C (dose: 3.0 mg/kg/injection, schedule: Q01DX015 (sc), vehicle: water): 103 % of control | T/C (dose: 4.4 mg/kg/injection, schedule: Q01DX015 (sc), vehicle: water): 101 % of control | T/C (dose: 6.7 mg/kg/injection, schedule: Q01DX015 (sc), vehicle: water): 103 % of control | T/C (dose: 7.5 mg/kg/injection, schedule: Q01DX015 (ip), vehicle: water): 206 % of control | T/C (dose: 15.0 mg/kg/injection, schedule: Q01DX015 (sc), vehicle: water): 206 % of control | T/C (dose: 22.5 mg/kg/injection, schedule: Q01DX015 (sc), vehicle: water): 158 % of control

CC(CC(c1ccccc1)c1ccccc1)[N+](C)(C)C (configuration not stated)
T/C (dose: 5.0 mg/kg/injection, schedule: Q01DX001 (ip), vehicle: carboxymethylcellulose (CMC)): 104 % of control | T/C (dose: 10.0 mg/kg/injection, schedule: Q01DX001 (ip), vehicle: carboxymethylcellulose (CMC)): 101 % of control | T/C (dose: 20.0 mg/kg/injection, schedule: Q01DX001 (ip), vehicle: carboxymethylcellulose (CMC)): 95 % of control | T/C (dose: 40.0 mg/kg/injection, schedule: Q01DX001 (ip), vehicle: carboxymethylcellulose (CMC)): 93 % of control | T/C (dose: 80.0 mg/kg/injection, schedule: Q01DX001 (ip), vehicle: carboxymethylcellulose (CMC)): 98 % of control

Oc1ccc(C2CC3CCC2C3)cc1 (configuration not stated)
T/C (dose: 100.0 mg/kg/injection, schedule: Q04DX003 (ip), vehicle: saline + alcohol): 98 % of control | T/C (dose: 200.0 mg/kg/injection, schedule: Q04DX003 (ip), vehicle: saline + alcohol): 90 % of control | T/C (dose: 400.0 mg/kg/injection, schedule: Q04DX003 (ip), vehicle: saline + alcohol): 96 % of control

O=C(O)C1CCCN1CCc1ccccc1 (configuration not stated)
T/C (dose: 100.0 mg/kg/injection, schedule: Q04DX003 (ip), vehicle: saline): 107 % of control | T/C (dose: 200.0 mg/kg/injection, schedule: Q04DX003 (ip), vehicle: saline): 105 % of control | T/C (dose: 400.0 mg/kg/injection, schedule: Q04DX003 (ip), vehicle: saline): 97 % of control

CCOC(=O)Nc1cc([N+](=O)[O-])ccc1OC
T/C (dose: 100.0 mg/kg/injection, schedule: Q01DX001 (ip), vehicle: Klucel (hydroxypropylcellulose) (HPC)): 105 % of control | T/C [1]: 105 % of control | T/C [2]: 96 % of control and 104 % of control | T/C [3]: 101 % of control | T/C (dose: 200.0 mg/kg/injection, schedule: Q01DX001 (ip), vehicle: Klucel (hydroxypropylcellulose) (HPC)): 100 % of control | T/C [4]: 108 % of control | T/C [5]: 96 % of control and 97 % of control | T/C [6]: 98 % of control | T/C (dose: 400.0 mg/kg/injection, schedule: Q01DX001 (ip), vehicle: Klucel (hydroxypropylcellulose) (HPC)): 101 % of control | T/C [7]: 102 % of control | T/C [8]: 96 % of control and 103 % of control | T/C [9]: 101 % of control

CC(Oc1cc(Cl)ccc1Cl)C(=O)O (configuration not stated)
T/C (dose: 50.0 mg/kg/injection, schedule: Q04DX003 (ip), vehicle: Klucel (hydroxypropylcellulose) (HPC)): 114 % of control | T/C [1]: 110 % of control | T/C [3]: 105 % of control | T/C [4]: 114 % of control | T/C [6]: 104 % of control | T/C [7]: 108 % of control

O=C(C1=Cc2ccccc2OC1)N1CCN(c2ccccc2)CC1
T/C [10]: 103 % of control | T/C [11]: 95 % of control | T/C [12]: 101 % of control

O=[N+]([O-])c1ccc(O)c(N=Cc2ccccc2O)c1
T/C [13]: 102 % of control | T/C [14]: 96 % of control | T/C [15]: 96 % of control

CCNCCC#N
T/C (dose: 100.0 mg/kg/injection, schedule: Q01DX009 (ip), vehicle: saline): 111 % of control | T/C [3]: 108 % of control | T/C (dose: 200.0 mg/kg/injection, schedule: Q01DX009 (ip), vehicle: saline): 107 % of control | T/C [6]: 107 % of control | T/C [9]: 111 % of control

Cn1cnc2cc(N=Cc3ccc(N(CCCl)CCCl)cc3Cl)ccc21
T/C [2]: 108 % of control | T/C [5]: 101 % of control | T/C [8]: 101 % of control

NOCc1cscn1
T/C (dose: 100.0 mg/kg/injection, schedule: Q01DX001 (ip), vehicle: saline): 98 % of control | T/C (dose: 200.0 mg/kg/injection, schedule: Q01DX001 (ip), vehicle: saline): 101 % of control | T/C (dose: 400.0 mg/kg/injection, schedule: Q01DX001 (ip), vehicle: saline): 101 % of control

CCO/C=C1\SC(=S)N(Cc2ccccc2)C1=O
T/C [16]: 94 % of control | T/C [17]: 99 % of control | T/C [18]: 102 % of control

Nc1cc(C(=O)Nc2cccc(C3=NCCCN3)c2)ccc1C(=O)Nc1cccc(C2=NCCCN2)c1
T/C (dose: 0.17 mg/kg/injection, schedule: Q01DX Z (ip), vehicle: water): 100 % of control | T/C (dose: 0.34 mg/kg/injection, schedule: Q01DX Z (ip), vehicle: water): 90 % of control | T/C (dose: 0.68 mg/kg/injection, schedule: Q01DX Z (ip), vehicle: water): 88 % of control

CCN(CC)c1ccc(NC(C)=O)cc1
T/C (dose: 12.5 mg/kg/injection, schedule: Q01DX009 (ip), vehicle: Klucel (hydroxypropylcellulose) (HPC)): 106 % of control | T/C (dose: 12.5 mg/kg/injection, schedule: Q04DX003 (ip), vehicle: Klucel (hydroxypropylcellulose) (HPC)): 92 % of control | T/C (dose: 25.0 mg/kg/injection, schedule: Q01DX009 (ip), vehicle: Klucel (hydroxypropylcellulose) (HPC)): 97 % of control | T/C (dose: 25.0 mg/kg/injection, schedule: Q04DX003 (ip), vehicle: Klucel (hydroxypropylcellulose) (HPC)): 91 % of control | T/C (dose: 50.0 mg/kg/injection, schedule: Q01DX009 (ip), vehicle: Klucel (hydroxypropylcellulose) (HPC)): 95 % of control

CC1C=CC2CC(O)C12 (configuration not stated)
T/C [19]: 111 % of control | T/C [16]: 102 % of control | T/C [20]: 93 % of control | T/C [17]: 98 % of control | T/C (dose: 400.0 mg/kg/injection, schedule: Q01DX009 (ip), vehicle: saline with Tween-80): 99 % of control | T/C [18]: 98 % of control

CC(C)(C)CC(C)(C)CC(C)(C)NCCCN
T/C [21]: 102 % of control | T/C [22]: 93 % of control | T/C (dose: 25.0 mg/kg/injection, schedule: Q04DX003 (ip), vehicle: saline with Tween-80): 90 % of control | T/C (dose: 50.0 mg/kg/injection, schedule: Q04DX003 (ip), vehicle: saline with Tween-80): 97 % of control | T/C [16]: 96 % of control

O=S1C=C(c2ccc(Cl)cc2)OC1 (configuration not stated)
T/C (dose: 12.0 mg/kg/injection, schedule: Q01DX001 (ip), vehicle: saline): 102 % of control | T/C (dose: 25.0 mg/kg/injection, schedule: Q01DX001 (ip), vehicle: saline): 107 % of control | T/C (dose: 50.0 mg/kg/injection, schedule: Q01DX001 (ip), vehicle: saline): 107 % of control

COc1ccc(-c2c(-c3ccccc3)oc3cc(O)ccc23)cc1
T/C [10]: 90 % of control | T/C [11]: 90 % of control | T/C [12]: 93 % of control

OC1C2CC3CC(C2)CC1C3 (configuration not stated)
T/C [2]: 102 % of control | T/C [5]: 98 % of control | T/C [8]: 94 % of control

COc1ccc(Cl)cc1NC(=O)c1ccco1
T/C [1]: 89 % of control | T/C [4]: 87 % of control | T/C [7]: 97 % of control

CCOC(=O)C(=CNc1ccc(OC)cc1[N+](=O)[O-])C(=O)OCC
T/C [21]: 97 % of control | T/C [22]: 90 % of control | T/C [19]: 94 % of control and 90 % of control | T/C (dose: 100.0 mg/kg/injection, schedule: Q04DX002 (ip), vehicle: saline with Tween-80): 95 % of control | T/C [20]: 105 % of control | T/C (dose: 200.0 mg/kg/injection, schedule: Q04DX002 (ip), vehicle: saline with Tween-80): 88 % of control | T/C (dose: 400.0 mg/kg/injection, schedule: Q04DX002 (ip), vehicle: saline with Tween-80): 92 % of control

CCCCCCOc1ccc(C(=O)C(=O)c2ccccc2)cc1
T/C [13]: 109 % of control | T/C [14]: 88 % of control | T/C [15]: 97 % of control
